Activity calls are given as the source filed them. The calls are words filed in the database; no cut-off is given here.
Tests used:
[1] = biological target: Serine/threonine-protein kinase D3 (Homo sapiens) (UniProt O94806); experiment: Inhibition of full-length recombinant human PKD3 at 10 uM using KKLRRTLSVA as substrate after 40 mins by in presence of [gamma33P]ATP by scintillation counting method relative to control
[2] = biological target: Serine/threonine-protein kinase NIM1 (Homo sapiens) (UniProt Q8IY84); experiment: Inhibition of recombinant human full length NIM1 at 10 uM using KKKVSRSGLYRSPSMPENLNRPR as substrate incubated for 40 mins in presence of [gamma-33P]-ATP by scintillation counting method relative to control
Chain of Serine/threonine-protein kinase NIM1 (Homo sapiens) (Q8IY84 whole entry): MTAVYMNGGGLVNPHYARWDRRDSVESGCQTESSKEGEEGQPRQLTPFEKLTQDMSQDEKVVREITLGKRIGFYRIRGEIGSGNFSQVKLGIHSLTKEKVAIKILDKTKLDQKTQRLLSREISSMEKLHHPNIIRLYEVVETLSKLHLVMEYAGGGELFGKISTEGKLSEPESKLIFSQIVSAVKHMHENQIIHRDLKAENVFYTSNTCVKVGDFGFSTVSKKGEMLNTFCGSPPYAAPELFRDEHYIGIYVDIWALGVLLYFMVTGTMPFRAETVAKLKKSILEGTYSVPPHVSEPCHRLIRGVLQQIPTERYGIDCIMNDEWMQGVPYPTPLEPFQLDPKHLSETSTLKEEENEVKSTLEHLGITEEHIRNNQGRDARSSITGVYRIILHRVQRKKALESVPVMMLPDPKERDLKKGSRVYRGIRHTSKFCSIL

[3] = biological target: T1, Transcriptional enhancer factor TEF-3 (Homo sapiens, UniProt Q15561); experiment: Binding affinity to TEAD4 in human HCT116 cells assessed as increase in soluble form of TEAD4 level at 50 uM preincubated for 4 hrs followed by heating at 51.6 to 64.4 degC for 3 mins by immunoblot-based […]; format: cell-based
T1 sequence (Q15561 whole entry): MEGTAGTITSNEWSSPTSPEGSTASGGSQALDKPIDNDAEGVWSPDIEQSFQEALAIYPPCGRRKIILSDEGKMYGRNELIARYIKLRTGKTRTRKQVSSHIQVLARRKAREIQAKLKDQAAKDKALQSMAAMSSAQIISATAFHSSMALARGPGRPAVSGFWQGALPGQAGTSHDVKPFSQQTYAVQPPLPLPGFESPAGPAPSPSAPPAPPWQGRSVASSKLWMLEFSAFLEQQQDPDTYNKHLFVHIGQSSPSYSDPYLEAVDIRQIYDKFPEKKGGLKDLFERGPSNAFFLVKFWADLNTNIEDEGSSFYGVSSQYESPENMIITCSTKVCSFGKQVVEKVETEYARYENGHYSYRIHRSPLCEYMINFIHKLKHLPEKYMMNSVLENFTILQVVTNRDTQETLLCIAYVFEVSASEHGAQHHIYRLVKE

[4] = biological target: Serine/threonine-protein kinase 17A (Homo sapiens) (UniProt Q9UEE5); experiment: Inhibition of full-length recombinant human DRAK1 at 10 uM using KKLNRTLSFAEPG as substrate after 40 mins by in presence of [gamma33P]ATP by scintillation counting method relative to control
[5] = biological target: Serine/threonine-protein kinase MAK (Homo sapiens) (UniProt P20794); experiment: Inhibition of recombinant full-length human MAK at 10 uM using RRRFRPASPLRGPPK as substrate measured after 120 mins in presence of [gamma33P]ATP by scintillation counting method relative to control
[6] = biological target: T1, Transcriptional enhancer factor TEF-3; experiment: Inhibition of N-terminal His6-tagged human TEAD4-YBD (217 to 434 residues) expressed in Escherichia coli C43 (DE3) cells at 50 to 1000 nM preincubated for 2 hrs followed by palmitoyl alkyne-coenzyme A addition and measured after 30 mins in presence of BSA by immunoblot analysis
[7] = biological target: T1, Transcriptional enhancer factor TEF-3; experiment: Binding affinity to Flag-tagged TEAD4 (unknown origin) expressed in HEK293T cells assessed as modification in Cys367 residue at 50 uM after 4 hrs by MS analysis; format: cell-based
[8] = tested on: Transcriptional enhancer factor TEF-3 (Homo sapiens), Q15561 [C410A]; experiment: Binding affinity to TEAD4-YBD C410A mutant (unknown origin) assessed as change in melting temperature by SYPRO-dye based thermal shift assay
Homo sapiens [9] = organism: Homo sapiens; experiment: Inhibition of full-length recombinant human PKBalpha S478G mutant at 10 uM using GRPRTSSFAEGKK as substrate after 40 mins by in presence of [gamma33P]ATP by scintillation counting method relative to control
[10] = biological target: Fibroblast growth factor receptor 4 (Homo sapiens) (UniProt P22455); experiment: Inhibition of recombinant human FGFR4 (442 to 755 residues) at 10 uM using poly(Glu, Tyr) 4:1 as substrate measured after 40 mins in presence of [gamma33P]ATP by scintillation counting method relative to control
[11] = biological target: Serine/threonine-protein kinase TAO1 (Homo sapiens) (UniProt Q7L7X3); experiment: Inhibition of recombinant human TAO1 (1 to 327 residues) at 10 uM using myelin basic protein as substrate measured after 40 mins in presence of [gamma33P]ATP by scintillation counting method relative to control
Chain of Serine/threonine-protein kinase TAO1 (Homo sapiens) (Q7L7X3 whole entry, the tested form may be a part): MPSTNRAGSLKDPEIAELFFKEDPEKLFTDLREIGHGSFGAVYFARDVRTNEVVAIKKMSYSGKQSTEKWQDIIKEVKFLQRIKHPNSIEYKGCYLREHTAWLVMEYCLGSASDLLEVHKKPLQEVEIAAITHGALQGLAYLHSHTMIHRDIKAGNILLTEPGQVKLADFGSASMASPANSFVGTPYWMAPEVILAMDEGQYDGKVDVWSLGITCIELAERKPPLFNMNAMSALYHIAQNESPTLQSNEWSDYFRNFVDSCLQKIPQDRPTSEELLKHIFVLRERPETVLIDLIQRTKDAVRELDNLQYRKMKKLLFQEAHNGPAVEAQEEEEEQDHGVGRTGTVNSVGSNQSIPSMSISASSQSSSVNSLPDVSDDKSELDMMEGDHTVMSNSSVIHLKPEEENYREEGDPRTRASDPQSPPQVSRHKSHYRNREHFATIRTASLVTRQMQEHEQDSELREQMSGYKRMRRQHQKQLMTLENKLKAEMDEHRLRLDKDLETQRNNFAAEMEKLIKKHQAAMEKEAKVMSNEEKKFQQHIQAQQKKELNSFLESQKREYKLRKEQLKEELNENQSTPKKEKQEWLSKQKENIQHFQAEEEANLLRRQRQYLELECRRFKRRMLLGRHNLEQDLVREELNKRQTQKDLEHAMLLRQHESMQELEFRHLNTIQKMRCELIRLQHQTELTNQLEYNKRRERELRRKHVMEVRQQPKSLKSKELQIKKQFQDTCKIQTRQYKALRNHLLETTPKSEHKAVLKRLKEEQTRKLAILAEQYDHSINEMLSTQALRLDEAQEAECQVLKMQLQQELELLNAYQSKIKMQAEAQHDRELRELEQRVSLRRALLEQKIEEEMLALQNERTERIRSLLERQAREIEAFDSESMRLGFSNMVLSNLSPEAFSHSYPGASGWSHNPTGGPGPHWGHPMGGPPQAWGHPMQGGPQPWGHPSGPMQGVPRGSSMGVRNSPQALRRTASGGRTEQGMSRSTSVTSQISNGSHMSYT

[12] = tested on: Transcriptional enhancer factor TEF-3 (Homo sapiens), Q15561 [C330A]; experiment: Binding affinity to TEAD4-YBD C330A mutant (unknown origin) assessed as change in melting temperature by SYPRO-dye based thermal shift assay
[13] = biological target: Activated CDC42 kinase 1 (Homo sapiens) (UniProt Q07912); experiment: Inhibition of human ACK1 (1 to 389 residues) at 10 uM using EFPIYDFLPAKKK as substrate after 40 mins in presence of [gamma33P]ATP by scintillation counting method relative to control
[14] = biological target: CDK2/Cyclin A2 (Homo sapiens) (UniProt P24941+P20248); experiment: Inhibition of recombinant full-length human CDK2/cyclinA at 10 uM using histone H1 as substrate measured after 40 mins in presence of [gamma33P]ATP by scintillation counting method relative to control; format: protein-complex assay
[15] = biological target: Serine/threonine-protein kinase mTOR (Homo sapiens) (UniProt P42345); experiment: Inhibition of recombinant full-length human mTOR at 10 uM after 40 mins in presence of [gamma33P]ATP by scintillation counting analysis relative to control
[16] = biological target: Protein kinase C beta type (Homo sapiens) (UniProt P05771); experiment: Inhibition of recombinant human PKCbeta2 (2 to end residues) at 10 uM using histone H1 as substrate after 40 mins by in presence of [gamma33P]ATP by scintillation counting method relative to control
[17] = biological target: Histone-lysine N-methyltransferase SETD7 (Homo sapiens) (UniProt Q8WTS6); experiment: Inhibition of human SET7 at 10 uM relative to control
Chain of Histone-lysine N-methyltransferase SETD7 (Homo sapiens) (Q8WTS6 whole entry): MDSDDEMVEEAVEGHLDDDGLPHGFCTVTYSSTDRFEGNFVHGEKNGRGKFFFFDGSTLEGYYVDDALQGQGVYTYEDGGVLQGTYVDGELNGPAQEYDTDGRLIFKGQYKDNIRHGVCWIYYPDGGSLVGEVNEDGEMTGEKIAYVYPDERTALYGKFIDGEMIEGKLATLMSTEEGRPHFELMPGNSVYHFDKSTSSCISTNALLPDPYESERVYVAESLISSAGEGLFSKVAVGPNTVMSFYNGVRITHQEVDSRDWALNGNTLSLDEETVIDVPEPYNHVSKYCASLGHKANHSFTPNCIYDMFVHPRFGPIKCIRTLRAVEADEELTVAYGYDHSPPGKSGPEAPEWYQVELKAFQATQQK

[18] = biological target: Ribosomal protein S6 kinase alpha-2 (Homo sapiens) (UniProt Q15349); experiment: Inhibition of full length recombinant human Rsk3 at 10 uM using KKKNRTLSVA as substrate after 40 mins in presence of [gamma33P]ATP by scintillation counting method relative to control
[19] = biological target: Catenin beta-1 (Homo sapiens) (UniProt P35222); experiment: Inhibition of beta catenin (unknown origin) expressed in HEK293T cells at 10 to 20 uM by dual-TOPFlash reporter gene assay; format: cell-based
Chain of Catenin beta-1 (Homo sapiens) (P35222 whole entry): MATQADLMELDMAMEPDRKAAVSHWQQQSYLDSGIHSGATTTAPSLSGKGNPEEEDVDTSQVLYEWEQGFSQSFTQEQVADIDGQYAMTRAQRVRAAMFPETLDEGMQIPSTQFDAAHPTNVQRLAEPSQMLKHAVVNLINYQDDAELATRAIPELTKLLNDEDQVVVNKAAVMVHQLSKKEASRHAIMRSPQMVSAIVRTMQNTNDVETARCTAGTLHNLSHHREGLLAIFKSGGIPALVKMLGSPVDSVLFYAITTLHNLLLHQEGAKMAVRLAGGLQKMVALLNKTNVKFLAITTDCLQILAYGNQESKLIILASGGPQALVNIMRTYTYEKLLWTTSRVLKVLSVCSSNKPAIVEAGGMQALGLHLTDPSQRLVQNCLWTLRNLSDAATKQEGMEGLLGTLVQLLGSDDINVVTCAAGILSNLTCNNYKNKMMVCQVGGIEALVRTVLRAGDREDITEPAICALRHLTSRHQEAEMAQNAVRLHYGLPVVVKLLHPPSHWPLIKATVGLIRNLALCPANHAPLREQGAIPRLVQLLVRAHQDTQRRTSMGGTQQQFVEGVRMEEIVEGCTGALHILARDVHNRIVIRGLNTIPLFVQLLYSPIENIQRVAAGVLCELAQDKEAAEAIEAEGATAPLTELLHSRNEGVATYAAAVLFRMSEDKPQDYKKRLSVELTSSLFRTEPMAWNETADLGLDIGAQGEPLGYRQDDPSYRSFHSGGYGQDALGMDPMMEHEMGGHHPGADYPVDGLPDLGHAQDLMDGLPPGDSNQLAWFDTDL

[20] = biological target: Serine/threonine-protein kinase/endoribonuclease IRE1 (Homo sapiens) (UniProt O75460); experiment: Inhibition of recombinant human IRE1 (465 to end residues) at 10 uM using myelin basic protein as substrate measured after 40 mins in presence of [gamma33P]ATP by scintillation counting method relative to control
[21] = biological target: Rhodopsin kinase GRK7 (Homo sapiens) (UniProt Q8WTQ7); experiment: Inhibition of full length recombinant human GRK7 at 10 uM using casein as substrate after 40 mins in presence of [gamma33P]ATP by scintillation counting method relative to control
Chain of Rhodopsin kinase GRK7 (Homo sapiens) (Q8WTQ7 whole entry): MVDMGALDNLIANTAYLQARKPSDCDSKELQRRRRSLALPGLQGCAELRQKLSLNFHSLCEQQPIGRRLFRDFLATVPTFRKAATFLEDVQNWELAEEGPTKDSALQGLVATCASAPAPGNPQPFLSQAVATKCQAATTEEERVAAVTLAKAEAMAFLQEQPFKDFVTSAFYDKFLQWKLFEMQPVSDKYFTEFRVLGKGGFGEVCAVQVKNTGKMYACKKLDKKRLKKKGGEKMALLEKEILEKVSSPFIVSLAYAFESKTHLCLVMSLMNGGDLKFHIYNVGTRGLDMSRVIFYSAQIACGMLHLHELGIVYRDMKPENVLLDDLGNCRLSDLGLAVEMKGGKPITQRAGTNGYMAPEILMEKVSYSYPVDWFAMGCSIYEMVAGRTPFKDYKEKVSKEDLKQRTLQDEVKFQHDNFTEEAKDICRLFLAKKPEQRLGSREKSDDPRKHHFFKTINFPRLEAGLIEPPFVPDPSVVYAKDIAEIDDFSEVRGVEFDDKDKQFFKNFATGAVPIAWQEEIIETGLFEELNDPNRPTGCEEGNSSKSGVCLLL

[22] = biological target: Death-associated protein kinase 2 (Homo sapiens) (UniProt Q9UIK4); experiment: Inhibition of full-length recombinant human DAPK2 at 10 uM using calmodulin as substrate after 40 mins by in presence of [gamma33P]ATP by scintillation counting method relative to control
[23] = biological target: Serine/threonine-protein kinase STK11 (Homo sapiens) (UniProt Q15831); experiment: Inhibition of recombinant full-length human LKB1 at 10 uM using LSNLYHQGKFLQTFCGSPLYRRR as substrate measured after 40 mins in presence of [gamm33P]ATP by scintillation counting method relative to control
Chain of Serine/threonine-protein kinase STK11 (Homo sapiens) (Q15831 whole entry): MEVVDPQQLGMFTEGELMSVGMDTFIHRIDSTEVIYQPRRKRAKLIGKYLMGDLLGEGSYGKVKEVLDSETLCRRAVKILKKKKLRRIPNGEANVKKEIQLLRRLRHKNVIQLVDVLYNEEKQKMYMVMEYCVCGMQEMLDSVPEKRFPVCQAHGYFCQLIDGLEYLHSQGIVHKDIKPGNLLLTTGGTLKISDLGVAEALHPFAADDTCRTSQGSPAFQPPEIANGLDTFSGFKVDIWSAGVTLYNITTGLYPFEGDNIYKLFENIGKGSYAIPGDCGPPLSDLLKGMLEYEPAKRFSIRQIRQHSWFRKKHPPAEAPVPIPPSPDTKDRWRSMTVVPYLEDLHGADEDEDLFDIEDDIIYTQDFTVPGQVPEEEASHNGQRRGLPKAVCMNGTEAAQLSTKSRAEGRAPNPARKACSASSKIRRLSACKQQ

Homo sapiens [24] = organism: Homo sapiens; experiment: Inhibition of recombinant human MAPKAPK2 A399G mutant (46 to end residues) at 10 uM using KKLNRTLSVA as substrate measured after 40 mins in presence of [gamma33P]ATP by scintillation counting method relative to control
[25] = biological target: Tyrosine-protein kinase JAK1 (Homo sapiens) (UniProt P23458); experiment: Inhibition of recombinant human JAK1 (866 to end residues) at 10 uM using GEEPLYWSFPAKK as substrate measured after 40 mins in presence of [gamm33P]ATP by scintillation counting method relative to control

Chain of Serine/threonine-protein kinase D3 (Homo sapiens) (O94806 whole entry): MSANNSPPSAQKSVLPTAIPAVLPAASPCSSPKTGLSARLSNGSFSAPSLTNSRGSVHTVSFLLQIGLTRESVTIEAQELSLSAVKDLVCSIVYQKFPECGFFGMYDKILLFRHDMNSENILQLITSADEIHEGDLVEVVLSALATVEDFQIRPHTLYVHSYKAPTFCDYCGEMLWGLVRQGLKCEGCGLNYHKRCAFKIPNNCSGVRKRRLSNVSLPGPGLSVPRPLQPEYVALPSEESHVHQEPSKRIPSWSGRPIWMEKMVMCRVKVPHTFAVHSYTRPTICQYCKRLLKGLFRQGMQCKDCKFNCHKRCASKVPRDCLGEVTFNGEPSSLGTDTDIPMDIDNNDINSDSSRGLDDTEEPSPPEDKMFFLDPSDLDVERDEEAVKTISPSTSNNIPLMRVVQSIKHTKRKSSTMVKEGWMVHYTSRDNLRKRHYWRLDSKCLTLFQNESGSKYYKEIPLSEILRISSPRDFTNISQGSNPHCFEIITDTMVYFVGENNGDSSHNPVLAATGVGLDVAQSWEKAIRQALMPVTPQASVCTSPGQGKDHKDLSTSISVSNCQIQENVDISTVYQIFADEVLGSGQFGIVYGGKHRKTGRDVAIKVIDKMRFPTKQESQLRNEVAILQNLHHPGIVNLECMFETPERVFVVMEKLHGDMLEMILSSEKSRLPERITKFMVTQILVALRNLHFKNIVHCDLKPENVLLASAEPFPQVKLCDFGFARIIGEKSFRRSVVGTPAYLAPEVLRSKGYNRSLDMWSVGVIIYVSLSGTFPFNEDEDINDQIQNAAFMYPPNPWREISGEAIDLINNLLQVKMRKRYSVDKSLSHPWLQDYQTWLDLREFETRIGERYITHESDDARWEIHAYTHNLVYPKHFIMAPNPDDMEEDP

SMILES: C=CS(=O)(=O)Nc1ccc(Cc2ccc3ccccc3c2)cc1
- inhibition [1]: 22%
- inhibition [2]: -5%
- Activity [3]: Active
- inhibition [4]: -1%
- inhibition [5]: -3%
- inhibition [6]: Active
- Activity [7]: Active
- ΔTm [8]: 7.3 °C
- inhibition (Homo sapiens [9]): 9%
- inhibition [10]: -4%
- inhibition [11]: -10%
- ΔTm [12]: 6.4 °C
- inhibition [13]: 10%
- inhibition [14]: 10%
- inhibition [15]: 5%
- inhibition [16]: 4%
- inhibition [17]: 2%
- inhibition [18]: 9%
- inhibition [19]: inactive
- inhibition [20]: -4%
- inhibition [21]: 4%
- inhibition [22]: -7%
- inhibition [23]: -3%
- inhibition (Homo sapiens [24]): -6%
- inhibition [25]: 7%
